From patent US20260297060A1, “COMPOUNDS FOR THE DEGRADATION OF MUTANT BRAF” (C4 THERAPEUTICS, INC., priority 2023, published 2026)

Legend:
[1] = system: A375 tumors; experiment: In vivo efficacy, A375 xenograft tumor volume (Example 8); parameters: species or system human A375 melanoma xenograft in female BALB/c nude mice; details: oral, FIG. 22
Procedure: FIG. 22 is a line graph showing in vivo efficacy of encorafenib, Compound 8, Compound 26, and Compound 38 in the treatment of female BALB/c nude mice bearing A375 tumors. Mice were treated with vehicle (10 μL/g, p.o., BID), encorafenib (35 mg/kg, p.o., QD), Compound 8 (10 mg/kg, p.o., BID), Compound 26 (10 mg/kg, p.o., BID), or Compound 38 (10 mg/kg, p.o., BID) by oral gavage (p.o.). Data points represent group mean change in tumor volume. Error bars represent standard error of the mean (SEM). The x-axis is the time measured in days and the y-axis is A375 tumor volume measured in mm^3. The experiment was conducted as described in Example 8.

[2] = molecular target: T1, human bile salt export pump (BSEP) efflux transporter (Homo sapiens, UniProt O95342); experiment: BSEP Vesicular Transport, one concentration inhibition assay; assay type: biochemical; details: human BSEP (HEK293) vesicles, taurocholate 0.2 μM, 4 mM Mg-ATP, 2 replicates
T1 construct: purchased SOLVO Biotechnology Charles River Laboratories, Szeged, Hungary; host or cells: HEK293 (inside out membrane vesicles)
Procedure: The vesicular transport (VT) assays were performed using inside out membrane vesicles derived from HEK293 cells expressing the specified human bile salt export pump (BSEP) efflux transporter. The membrane vesicles were procured from SOLVO Biotechnology Charles River Laboratories, Szeged, Hungary.
The principle of the assay relies on measuring the accumulation of substrate into inside out vesicles containing the efflux transporter. By utilizing inside out vesicles, the ATP-dependent transport of substrate is directed into the vesicular lumen, where low permeability compounds are then essentially trapped.
For the 1 concentration inhibition assay, each compound was tested in the presence of ATP (active transport) in 2 replicates.
The solvent control (DMSO) was tested in the presence of ATP (active transport) and in the presence of AMP (background) in 8 replicates. […]
The samples were then be transferred to a filter plate and washed with 200 μL cold washing mix5-times to remove any free compounds or taurocholate probe substrate. The amount of taurocholate probe substrate inside the filtered vesicles were determined by liquid scintillation counting. […] The amount of taurocholate probe substrate inside the filtered vesicles were determined by liquid scintillation counting.

[3] = Human dose projections for Compound 26 (allometry, PBPK model), Example 15
Description: The first-in-human dose projections for Compound 26 were made using prediction models. These models utilized experimentally determined physicochemical and ADME parameters relevant to Compound 26. The in vivo plasma clearance (Cl) and volume of distribution (Vdss) values obtained across different preclinical species (mouse, rat, dog and monkey) were scaled to predict human values using allometry. […] In addition, the human efficacious AUC (area under the concentration curve) was derived from a PKPD efficacy study in a tumor bearing mouse model. […] With these inputs a pharmacokinetic model (PBPK) was developed to project first in human BID dose. The oral bioavailability data for Compound 26 from preclinical species, mouse, rat, dog and monkey was simulated in the PBPK model for that species, to build confidence in the human PBPK model.

T1 sequence (O95342 whole entry): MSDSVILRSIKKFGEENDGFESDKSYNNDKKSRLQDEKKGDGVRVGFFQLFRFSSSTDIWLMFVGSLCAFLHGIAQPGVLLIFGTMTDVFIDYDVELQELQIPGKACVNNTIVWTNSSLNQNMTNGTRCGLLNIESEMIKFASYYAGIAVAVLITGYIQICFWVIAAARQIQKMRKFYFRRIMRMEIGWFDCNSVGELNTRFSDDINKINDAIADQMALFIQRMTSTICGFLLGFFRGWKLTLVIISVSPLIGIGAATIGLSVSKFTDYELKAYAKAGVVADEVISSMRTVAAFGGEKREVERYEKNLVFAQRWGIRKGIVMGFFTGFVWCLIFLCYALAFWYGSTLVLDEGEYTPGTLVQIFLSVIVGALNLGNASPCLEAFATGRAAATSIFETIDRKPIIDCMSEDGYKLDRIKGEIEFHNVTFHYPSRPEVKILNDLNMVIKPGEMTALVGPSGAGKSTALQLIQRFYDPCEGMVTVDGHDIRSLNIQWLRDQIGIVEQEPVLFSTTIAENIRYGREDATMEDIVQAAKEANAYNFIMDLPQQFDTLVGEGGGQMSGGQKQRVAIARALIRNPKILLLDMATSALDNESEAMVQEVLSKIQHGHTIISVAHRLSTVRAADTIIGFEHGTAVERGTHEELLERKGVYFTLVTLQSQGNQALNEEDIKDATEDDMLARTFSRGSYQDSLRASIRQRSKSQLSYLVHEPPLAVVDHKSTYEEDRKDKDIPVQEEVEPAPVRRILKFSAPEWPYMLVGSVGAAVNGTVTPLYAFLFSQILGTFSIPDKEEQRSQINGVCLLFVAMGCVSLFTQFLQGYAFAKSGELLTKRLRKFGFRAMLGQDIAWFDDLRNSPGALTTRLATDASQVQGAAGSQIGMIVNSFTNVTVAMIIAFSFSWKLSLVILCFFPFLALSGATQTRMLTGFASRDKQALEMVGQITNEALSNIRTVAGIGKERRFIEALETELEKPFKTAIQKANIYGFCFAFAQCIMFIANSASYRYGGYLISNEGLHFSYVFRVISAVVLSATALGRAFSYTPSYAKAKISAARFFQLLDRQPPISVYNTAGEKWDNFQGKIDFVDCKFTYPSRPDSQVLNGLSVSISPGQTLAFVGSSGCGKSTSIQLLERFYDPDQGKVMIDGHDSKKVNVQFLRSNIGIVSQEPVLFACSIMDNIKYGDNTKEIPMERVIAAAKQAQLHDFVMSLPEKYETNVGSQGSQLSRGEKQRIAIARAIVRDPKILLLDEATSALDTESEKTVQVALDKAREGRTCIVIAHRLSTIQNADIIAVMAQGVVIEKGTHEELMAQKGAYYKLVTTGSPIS

CCN(C)S(=O)(=O)Nc1ccc(F)c(Oc2ccc3ncn(C4CC5(CCN(C6CCC(c7cc8c(cc7F)c(N7CCC(=O)NC7=O)nn8C)CC6)CC5)C4)c(=O)c3c2)c1C#N (single isomer, unassigned) [Compound 8, 6-[2-cyano-3-[[ethyl(methyl)sulfamoyl]amino]-6-fluoro-phenoxy]-3-[7-[4-[3-(2,4-dioxohexahydropyrimidin-1-yl)-5-fluoro-1-methyl-indazol-6-yl]cyclohexyl]-7-azaspiro[3.5]nonan-2-yl]-4-oxo-quinazoline]
tumor regressions in the xenograft model ([1]; 10 mg/kg BID, A375 xenografts): profound tumor regressions
antitumor response compared with comparators dabrafenib or encorafenib ([1]; A375 human melanoma xenografts): more robust antitumor response

CCN(C)S(=O)(=O)Nc1ccc(F)c(Oc2ccc3ncn([C@H]4COC5(CCN(C6CC(c7cc8c(cc7F)c(N7CCC(=O)NC7=O)nn8C)C6)CC5)C4)c(=O)c3c2)c1C#N (single isomer, unassigned) [Compound 70]
BSEP Inhibition SD Inhibition % [2]: 80%

CCN(C)S(=O)(=O)Nc1ccc(F)c(Oc2ccc3ncn([C@H]4COC5(CCN(C6CC7(C6)CN(c6cc8c(cc6F)c(N6CCC(=O)NC6=O)nn8C)C7)CC5)C4)c(=O)c3c2)c1C#N [Compound 26, (3R)-3-[6-[2-cyano-3-[[ethyl(methyl)sulfamoyl]amino]-6-fluoro-phenoxy]-4-oxo-quinazolin-3-yl]-8-[2-[3-(2,4-dioxohexahydropyrimidin-1-yl)-5-fluoro-1-methyl-indazol-6-yl]-2-azaspiro[3.3]heptan-6-yl]-1-oxa-8-azaspiro[4.5]decane]
Human Vdss ([3]; Table 86): 0.50 L/kg
Human CL (PPB corrected plasma clearance) ([3]; allometry from mouse, rat, dog and monkey): 0.88 mL/min/kg
